Data from ChEMBL document CHEMBL1153899, “Discovery of benzothiazole derivatives as efficacious and enterocyte-specific MTP inhibitors” (Bioorg Med Chem Lett, 2009).
Calls of active or inactive are those of the source. The rule behind the calls is not given here.

Key:
[1] = system: HepG2; test: Inhibition of apoB secretion in human HepG2 cells after 40 hrs by ELISA; format: functional, cell-based; conditions: HepG2, 40 h
[2] = Inhibition of MTP from dog liver microsomes by scintillation counting; design: species or system Canis lupus familiaris, Microsome
[3] = system: Mus musculus; test: Increase in peptide YY level in 3-day high fat diet fed C57BL/6 mouse at 10 mg/kg, po daily for 3 days; format: functional, organism-based; design: dose 10 mg/kg
[4] = system: Mus musculus; test: Decrease in plasma triglyceride level in […] C57BL/6 mouse at 10 mg/kg, po daily for 3 days measured after 6 hrs; format: functional
[5] = system: Mus musculus; test: Decrease in total food intake in 3-day high fat diet fed C57BL/6 mouse at 10 mg/kg, po daily for 3 days; format: functional
[6] = system: Mus musculus; test: Decrease in body weight in […] at 10 mg/kg, po daily for 3 days; format: functional, C57BL/6

Row | IC50 [1] [nM] | IC50 [2] [nM] | SMILES | Activity [3] | Activity [4] | Activity [5] | Activity [6]
1 | 4 | 2 | CN(Cc1ccccc1)C(=O)[C@@H](NC(=O)c1cc2cc(NC(=O)c3ccccc3-c3ccc(C(F)(F)F)cc3)ccc2n1C)c1ccccc1 [DIRLOTAPIDE] |  |  |  | 
2 | 2.7 | 3 | CN(Cc1ccc(F)cc1)C(=O)[C@@H](NC(=O)c1nc2ccc(NC(=O)c3ccccc3-c3ccc(C(C)(C)C)cc3)cc2s1)c1ccccc1 | Active | Active | Active | Active
3 | 17.3 |  | CN(Cc1ccc(F)cc1)C(=O)[C@@H](NC(=O)c1nc2ccc(NC(=O)c3ccccc3-c3ccc(C(F)(F)F)cc3)cc2s1)c1ccccc1 |  |  |  | 
4 | 23.7 | 14.8 | CN(Cc1ccc(F)cc1)C(=O)[C@@H](NC(=O)c1nc2ccc(NC(=O)c3ccccc3-c3cn4ccsc4n3)cc2s1)c1ccccc1 | inactive | inactive | inactive | inactive
